Values quoted from earlier work in US20050112193A1, “Immediate-release formulations of acid-labile pharmaceutical compositions” (priority 2003, published 2005).
Where two headings read alike, the source gives them in different places.

Legend:
[1] = for time to undergo 50% degradation: acidic stomach / gastric environment, pH of 1.2 given for pantoprazole sodium and rabeprazole sodium
[2] = in water

| SMILES | pKa | time to undergo 50% degradation [1] | time for 50% of drug to be degraded (t ½) ([1]; pH 1.2) [h] | time for 50% of drug to be degraded (t ½) ([1]; pH 5.1) [h] | Solubility [2] | time for 50% of drug to be degraded (t ½) ([1]; pH 5) [h] | time for 50% of drug to be degraded (t ½) ([1]; pH 6) [h] | time for 50% of drug to be degraded (t ½) ([1]; pH 7) [h] | Solubility ([2]; listed as Lansoprazole base) | Solubility ([2]; listed as Omeprazole base) |
| --- | --- | --- | --- | --- | --- | --- | --- | --- | --- | --- |
| COCCCOc1ccnc(C[S+]([O-])c2nc3ccccc3[nH]2)c1C (stereo not drawn) [Rabeprazole sodium] | 4.9 | less than 1.5 minutes | 0.0217 | 0.12 | Very soluble |  |  |  |  |  |
| COc1ccnc(C[S+]([O-])c2nc3ccc(OC(F)F)cc3[nH]2)c1OC (stereo not drawn) [Pantoprazole sodium] | 3 | less than 5 minutes | 0.0767 | 4.7 | very soluble | 2.8 | 21 | 73 |  |  |
| Cc1c(OCC(F)(F)F)ccnc1C[S+]([O-])c1nc2ccccc2[nH]1 (stereo not drawn) [Lansoprazole] | 4.1 | 2 min | 0.0333 | 1.5 |  |  | 6.4 | 35 | very slightly soluble |  |
| COc1ccc2[nH]c([S+]([O-])Cc3ncc(C)c(OC)c3C)nc2c1 (stereo not drawn) [Omeprazole, 5-methoxy-2-[[(4-methoxy-3,5-dimethyl-2-pyridinyl)methyl]sulfinyl]-1H-benzimidazole] | 3.9 | less than 3 minutes | 0.0467 | 1.4 |  |  | 7.3 | 39 |  | slightly soluble |
